{"source": "patent US9610292B2", "about": "“Uses for 4,17β-dihydroxyandrost-4-ene-3-one” (MaBel GmbH, priority 2006, dated 2017)", "key": {"[1]": {"test_system": "malign breast carcinoma (C. mammae)", "assay": "Double blind clinical test, topical cream once a day for 3 months, patients with malign breast carcinoma", "format": "in vivo, human", "conditions": "for Clinical Remission: daily topical cream, 3 months", "description": "Double blind clinical tests were conducted with a group of 10 female patients. In this clinical testing, particular attention was paid to hormone receptor statuses of patients' target breast cancer tissue regarding progesterone receptor (PR) and in particular regarding estrogen receptor (ER); The cancers of the patients were assumed to be predominantly androgen receptor (AR) positive. Among this group, six patients had histologically ascertained malign breast carcinoma (C. mammae). […] In a sixth patient, the presence of a malign breast carcinoma was ascertained, but the amount of cancer tissue was too low to determine receptor status.\n(§1) All 10 female patients were topically and locally treated using 4-hydroxytestosterone as active agent, by administering of a cream as described in Example 2 locally to target skin portions of the breasts. After continuing daily topical administration once a day during an administration period of 3 months, clinical investigations on therapeutic effects were performed.\nThe results of the 6 patients having malign breast carcinoma are shown in the following Table 1, together with the receptor status determined for patient nos. 1 to 5."}, "[2]": {"test_system": "normal or mastopathic breast tissue", "assay": "Double blind clinical test, topical cream, patients with non-malign disease states", "format": "in vivo, human", "conditions": "4 patients having non-malign disease states, topical administration", "description": "as §1"}, "MCF-7 cells": {"test_system": "MCF-7 cells", "assay": "Inhibition of MCF-7 cell proliferation (counting of vital cells)", "format": "cell-based, human", "conditions": "10^-7 M, 10^-8 M and 10^-9 M; cell counting after 3, 6 and 9 days; compared with DHT and control", "description": "MCF-7 cells were grown in RPMI 1640 medium at 37° C. to a cell number of about 1*10^5 cells/ml. Then, in quadruple identical MCF-7 cell samples, there were added either dihydrotestosterone (DHT) or 4-hydroxytestosterone (4-OHT), to obtain different concentrations thereof, namely 10^−7 M, 10^−8 M or 10^−9 M, and further growth of cells were determined by counting of vital cells. During the course of incubation at 37° C., cell counting were performed after 3, 6 and 9 days. For control, growth of MCF-7 cells were determined without addition of an active agent.\nThe results on an inhibition of MCF-7 cell proliferation are shown in FIGS. 1A, 1B and 1C for the compound concentrations of 10^−7 M, 10^−8 M and 10^−9 M of either DHT or 4-OHT, respectively, and compared with the control."}}, "data": [{"smiles": "C[C@]12CC[C@H]3[C@@H](CCC4=C(O)C(=O)CC[C@@]43C)[C@@H]1CC[C@@H]2O", "note": "[4-hydroxytestosterone, 4,17β-dihydroxyandrost-4-ene-3-one]", "values": [{"measurement": "Clinical Remission", "setting": "[1]; Patient # 1, ER 0, PR 0, Her2neu 0", "value": "yes"}, {"measurement": "Clinical Remission", "setting": "[1]; Patient # 3, ER 0, PR 0, Her2neu 0", "value": "yes"}, {"measurement": "Clinical Remission", "setting": "[1]; Patient # 6, receptor status unknown", "value": "yes"}, {"measurement": "efficacy in shrinking cancerous tissues", "setting": "[1]; clinical study overall, including ER negative cancers", "value": "excellent efficacy"}, {"measurement": "tissue reduction of normal or mastopathic appearing tissues", "setting": "[2]", "value": "clear tendency for tissue reduction"}, {"measurement": "inhibitory effect on MCF-7 cell proliferation", "setting": "MCF-7 cells", "value": "significantly enhanced inhibitory effect"}]}]}
